Results as given in the supplement of paper PMC10627819.

How the values were obtained:
B. subtilis 168 = assay: Bliss interaction score (quartile over a dose matrix) (fitness difference); higher = more antagonism (negative = synergy)
Method in brief: (§1)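 The Bliss score takes observed fitness and subtracts the expected fitness, calculated as a product of single-drug fitness values. Those single-drug values were inferred from the combination data. Fitness is OD595 at entry into stationary phase divided by the plate's robust no-drug mean, capped at 1, and the score is summarised by quartiles across technical, biological and donor/recipient replicates.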

S. aureus DSM 20231 [1] = assay: as above
Method in brief: as §1

S. aureus Newman [2] = assay: as above
Method in brief: as §1

S. pneumoniae D39V [3] = assay: as above
Method in brief: as §1

S. aureus DSM 20231 [4] = assay: fitness (endpoint OD595 vs no drug) (fraction); higher = more growth
Method in brief: (§2)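 Fitness was measured as bacterial growth in 384-well plates inoculated at OD595 0.01 (30 µl, or 55 µl for S. pneumoniae). Media were TSB, LB Lennox or CY, at 37 °C. OD595 was read every 30 min for 14 h and background-subtracted against the first reading. Fitness is OD595 at the transition into stationary phase divided by the robust mean of no-drug control wells, capped at 1.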

S. aureus Newman [5] = assay: as above
Method in brief: as §2

S. pneumoniae D39V [6] = assay: as above
Method in brief: as §2
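Throughout, for Bliss interaction score (quartile over a dose matrix): first quartile when negative (synergy) and third quartile when positive (antagonism).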
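Throughout, for fitness (endpoint OD595 vs no drug): OD595 on entry to stationary phase over no-drug wells; at most 1.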

CO/N=C(\C(=O)N[C@@H]1C(=O)N2C(C(=O)[O-])=C(C[N+]3(C)CCCC3)CS[C@H]12)c1csc(N)n1 [Cefepime] + Cc1onc(-c2ccccc2)c1C(=O)N[C@@H]1C(=O)N2[C@@H]1SC(C)(C)[C@@H]2C(=O)O [Oxacillin]
Conditions	Bliss interaction score
B. subtilis 168	-0.0609
S. aureus DSM 20231 [1]	-0.054
S. aureus Newman [2]	0.11
S. pneumoniae D39V [3]	-0.138

Conditions	fitness
S. aureus DSM 20231 [4], first compound 0.125 µg/mL, partner 0.0156 µg/mL	0.75
S. aureus DSM 20231 [4], first compound 0.125 µg/mL, partner 0.0312 µg/mL	0.641
S. aureus DSM 20231 [4], first compound 0.125 µg/mL, partner 0.0625 µg/mL	0.507
S. aureus DSM 20231 [4], first compound 0.25 µg/mL, partner 0.0156 µg/mL	0.826
S. aureus DSM 20231 [4], first compound 0.25 µg/mL, partner 0.0312 µg/mL	0.634
S. aureus DSM 20231 [4], first compound 0.25 µg/mL, partner 0.0625 µg/mL	0.578
S. aureus DSM 20231 [4], first compound 0.5 µg/mL, partner 0.0156 µg/mL	0.624
S. aureus DSM 20231 [4], first compound 0.5 µg/mL, partner 0.0312 µg/mL	0.565
S. aureus DSM 20231 [4], first compound 0.5 µg/mL, partner 0.0625 µg/mL	0.53
S. aureus Newman [5], first compound 0.125 µg/mL, partner 0.0156 µg/mL	0.828
S. aureus Newman [5], first compound 0.125 µg/mL, partner 0.0312 µg/mL	0.796
S. aureus Newman [5], first compound 0.125 µg/mL, partner 0.0625 µg/mL	0.71
S. aureus Newman [5], first compound 0.25 µg/mL, partner 0.0156 µg/mL	0.804
S. aureus Newman [5], first compound 0.25 µg/mL, partner 0.0312 µg/mL	0.753
S. aureus Newman [5], first compound 0.25 µg/mL, partner 0.0625 µg/mL	0.682
S. aureus Newman [5], first compound 0.5 µg/mL, partner 0.0156 µg/mL	0.768
S. aureus Newman [5], first compound 0.5 µg/mL, partner 0.0312 µg/mL	0.684
S. aureus Newman [5], first compound 0.5 µg/mL, partner 0.0625 µg/mL	0.667
S. pneumoniae D39V [6], first compound 0.007 µg/mL, partner 0.005 µg/mL	0.997
S. pneumoniae D39V [6], first compound 0.007 µg/mL, partner 0.01 µg/mL	≥ 1
S. pneumoniae D39V [6], first compound 0.007 µg/mL, partner 0.02 µg/mL	0.986
S. pneumoniae D39V [6], first compound 0.0078 µg/mL, partner 0.01 µg/mL	0.95
S. pneumoniae D39V [6], first compound 0.0078 µg/mL, partner 0.02 µg/mL	0.825
S. pneumoniae D39V [6], first compound 0.0078 µg/mL, partner 0.04 µg/mL	0.254
S. pneumoniae D39V [6], first compound 0.014 µg/mL, partner 0.005 µg/mL	≥ 1
S. pneumoniae D39V [6], first compound 0.014 µg/mL, partner 0.01 µg/mL	≥ 1
S. pneumoniae D39V [6], first compound 0.014 µg/mL, partner 0.02 µg/mL	1
S. pneumoniae D39V [6], first compound 0.0155 µg/mL, partner 0.01 µg/mL	0.86
S. pneumoniae D39V [6], first compound 0.0155 µg/mL, partner 0.04 µg/mL	0.153
S. pneumoniae D39V [6], first compound 0.028 µg/mL, partner 0.005 µg/mL	0.955
S. pneumoniae D39V [6], first compound 0.028 µg/mL, partner 0.01 µg/mL	0.942
S. pneumoniae D39V [6], first compound 0.028 µg/mL, partner 0.02 µg/mL	0.847
S. pneumoniae D39V [6], first compound 0.031 µg/mL, partner 0.04 µg/mL	0.0453

CO/N=C(\C(=O)N[C@@H]1C(=O)N2C(C(=O)[O-])=C(C[N+]3(C)CCCC3)CS[C@H]12)c1csc(N)n1 [Cefepime] + Cn1nnc(-c2ccc(-c3ccc(N4C[C@H](CO)OC4=O)cc3F)cn2)n1 [Tedizolid]
Conditions	Bliss interaction score
B. subtilis 168	0.12
S. aureus DSM 20231 [1]	0.122
S. aureus Newman [2]	-0.0634
S. pneumoniae D39V [3]	0.237

fitness
Conditions	partner 0.03125 µg/mL	partner 0.0625 µg/mL	partner 0.125 µg/mL	partner 0.25 µg/mL	partner 0.5 µg/mL
S. aureus DSM 20231 [4], first compound 0.125 µg/mL	–	0.879	0.804	0.692	–
S. aureus DSM 20231 [4], first compound 0.25 µg/mL	–	0.796	0.738	0.601	–
S. aureus DSM 20231 [4], first compound 0.5 µg/mL	–	0.844	0.797	0.69	–
S. aureus Newman [5], first compound 0.125 µg/mL	–	0.858	0.837	–	–
S. aureus Newman [5], first compound 0.25 µg/mL	–	0.81	0.773	–	–
S. aureus Newman [5], first compound 0.5 µg/mL	–	0.728	0.717	–	–
S. pneumoniae D39V [6], first compound 0.007 µg/mL	–	–	0.953	0.642	0.129
S. pneumoniae D39V [6], first compound 0.0078 µg/mL	0.986	0.983	0.879	–	–
S. pneumoniae D39V [6], first compound 0.014 µg/mL	–	–	0.95	0.626	0.149
S. pneumoniae D39V [6], first compound 0.0155 µg/mL	0.969	0.974	0.895	–	–
S. pneumoniae D39V [6], first compound 0.028 µg/mL	–	–	0.937	0.652	0.105
S. pneumoniae D39V [6], first compound 0.031 µg/mL	0.971	0.948	0.888	–	–
